Where “and” joins values, the source holds several entries; their conditions need not be identical. Equal values may be shown once.

T1 sequence (Q9NUW8 whole entry): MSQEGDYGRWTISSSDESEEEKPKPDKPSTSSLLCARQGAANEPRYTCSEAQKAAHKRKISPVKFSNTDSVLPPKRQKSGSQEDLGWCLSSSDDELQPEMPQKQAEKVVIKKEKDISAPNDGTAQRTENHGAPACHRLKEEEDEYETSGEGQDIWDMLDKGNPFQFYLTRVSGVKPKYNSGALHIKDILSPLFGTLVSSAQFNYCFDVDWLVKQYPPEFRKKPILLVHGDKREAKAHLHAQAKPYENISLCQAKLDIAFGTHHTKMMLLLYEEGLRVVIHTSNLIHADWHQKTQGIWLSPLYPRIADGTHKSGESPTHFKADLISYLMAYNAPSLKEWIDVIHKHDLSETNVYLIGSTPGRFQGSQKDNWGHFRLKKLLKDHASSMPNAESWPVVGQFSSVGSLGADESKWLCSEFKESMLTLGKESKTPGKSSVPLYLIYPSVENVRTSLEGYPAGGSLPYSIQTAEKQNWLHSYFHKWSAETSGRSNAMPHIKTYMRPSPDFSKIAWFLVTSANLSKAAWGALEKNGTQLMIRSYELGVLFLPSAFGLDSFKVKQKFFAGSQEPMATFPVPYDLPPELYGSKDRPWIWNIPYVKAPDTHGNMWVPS

One test addresses T1, Tdp1 (Homo sapiens, UniProt Q9NUW8).
T1 construct: inferred from the pET 16B vector and the Ni-chelating resin) (N); made in house
The test is described as follows: Real-time detection of Tdp1 activity with FAM-BHQ1 oligonucleotide biosensor. The format is biochemical. The settings on record: IC50 (concentration that inhibits the activity of the enzyme by 50%), samples synthesized by the authors; 50 nM biosensor, 1.3 nM Tdp1, 26 °C. The text has this: For testing, we used recently designed oligonucleotide biosensors for the real-time detection of Tdp1 activity based on the ability of Tdp1 to remove fluorophore quenchers from the 3′-end of DNA [27]. The hexadecameric oligonucleotide carried 5(6)-carboxyfluorescein (FAM) at the 5′-end and fluorophore quencher BHQ1 (Black Hole Quencher-1) at the 3′-end. Tdp1 inhibitors prevent the removal of fluorophore quenchers, thus reducing fluorescence intensity.
The recombinant Tdp1 was purified to homogeneity by chromatography on Ni-chelating resin and phosphocellulose P11 as described using the plasmid pET 16B-Tdp1 kindly provided by Dr. K.W. Caldecott (University of Sussex, United Kingdom).
Real-Time Detection of Tdp1 Activity. The Tdp1 activity measurements were carried out as described. Briefly, Tdp1-biosensor with a final concentration of 50 nM was incubated in a volume of 200 μL containing a Tdp1 buffer (50 mM Tris-HCl pH8.0, 50 mM NaCl, 7 mM β-mercaptoethanol) supplemented with purified 1.3 nM Tdp1 and various concentrations of the inhibitor in a 1.5% DMSO solution. Fluorescence measurements (Ex485/Em520 nm) were carried out during the linear phase of reaction (from 0 to 8 min) every 55 s. The reactions were incubated at a constant temperature of 26 °C in a POLARstar OPTIMA fluorimeter, BMG LABTECH, GmbH. The influence of compounds was evaluated by comparing the fluorescence increase rate in the presence of compounds to that of the DMSO control wells.
Take `CC(=O)OC1CCC2(C)C(C1)CC(OC(C)=O)C1C2CCC2(C)C(C(C)CCC(=O)NCCc3c[nH]c4ccccc34)CCC12` (centres unmarked) [Compound 1a]: it took 0.32 ± 0.11 µM to reach half-maximal inhibition (IC50).

In the case of `CC(CCC(=O)NCCc1c[nH]c2ccccc12)C1CCC2C3C(O)CC4CC(O)CCC4(C)C3CCC12C` (centres unmarked) [Compound 1b], inhibition was half-maximal at 2.65 ± 0.3 µM (IC50).

In the case of `CC(=O)OC1CCC2(C)C(C1)CC(OC(C)=O)C1C2CCC2(C)C(C(C)CCC(=O)NCCc3c[nH]c4ccccc34)CCC12` (centres unmarked) [Compound 2a], the midpoint of inhibition, the IC50, lay at 0.38 ± 0.12 µM.

Take `CC(CCC(=O)NCCc1c[nH]c2ccccc12)C1CCC2C3C(O)CC4CC(O)CCC4(C)C3CCC12C` (centres unmarked) [Compound 2b]: the half-maximal inhibitory concentration (IC50) (in general, the concentration at which inhibition is half-maximal) is ~2.6 µM and 2.6 µM.

With `CC(=O)OC1CCC2(C)C(CCC3C2CC(OC(C)=O)C2(C)C(C(C)CCC(=O)NCCc4c[nH]c5ccccc45)CCC32)C1` (centres unmarked) [Compound 3a], the IC50 was found to be 0.65 ± 0.16 µM.

For `CC(CCC(=O)NCCc1c[nH]c2ccccc12)C1CCC2C3CCC4CC(O)CCC4(C)C3CC(O)C12C` (centres unmarked) [Compound 3b], it took 2.7 ± 0.2 µM to reach half-maximal inhibition (IC50).

The compound `CC(=O)OC1CC2C(CCC3CC(O)CCC32C)C2CCC(C(C)CCC(=O)NCCc3c[nH]c4ccccc34)C12C` (centres unmarked) [Compound 3c] had a half-inhibitory concentration (IC50) of 0.95 ± 0.05 µM.

`CC(=O)OC1CCC2(C)C(CCC3C2CC(O)C2(C)C(C(C)CCC(=O)NCCc4c[nH]c5ccccc45)CCC32)C1` (centres unmarked) [Compound 3d] showed an IC50 of 0.48 ± 0.04 µM.

The compound `CC(=O)O[C@@H]1CC[C@@]2(C)[C@H](CC[C@@H]3[C@@H]2C[C@H](OC(C)=O)[C@]2(C)[C@@H]([C@H](C)CCC(=O)Nc4ccccc4)CC[C@@H]32)C1` [Compound 4a, N-Phenyl-3α,12α-diacetoxy-5β-cholan-24-amide] came in with a concentration for half-maximal inhibition (IC50) of 0.43 ± 0.13 µM.

`C[C@H](CCC(=O)Nc1ccccc1)[C@H]1CC[C@H]2[C@@H]3CC[C@@H]4C[C@H](O)CC[C@]4(C)[C@H]3C[C@H](O)[C@]12C` [Compound 4b, N-Phenyl-3α,12α-dihydroxy-5β-cholan-24-amide] showed an IC50 of 6.7 ± 0.7 µM.

In turn, `CC(=O)O[C@@H]1CC[C@@]2(C)[C@H](CC[C@@H]3[C@@H]2C[C@H](OC(C)=O)[C@]2(C)[C@@H]([C@H](C)CCC(=O)Nc4ccc(Br)cc4)CC[C@@H]32)C1` [Compound 5a, N-(4′-Bromophenyl)-3α,12α-diacetoxy-5β-cholan-24-amide] returned a half-maximal inhibitory concentration (IC50) of 0.42 ± 0.01 µM.

As for `C[C@H](CCC(=O)Nc1ccc(Br)cc1)[C@H]1CC[C@H]2[C@@H]3CC[C@@H]4C[C@H](O)CC[C@]4(C)[C@H]3C[C@H](O)[C@]12C` [Compound 5b, N-(4′-Bromophenyl)-3α,12α-dihydroxy-5β-cholan-24-amide], it took 1.3 ± 0.2 µM to reach half-maximal inhibition (IC50).

`CC(=O)O[C@@H]1CC[C@@]2(C)[C@H](CC[C@@H]3[C@@H]2C[C@H](OC(C)=O)[C@]2(C)[C@@H]([C@H](C)CCC(=O)Nc4ccc(C)cc4)CC[C@@H]32)C1` [Compound 6a, N-(p-Tolyl)-3α,12α-diacetoxy-5β-cholan-24-amide] yielded an IC50 of 1 ± 0.05 µM.

`Cc1ccc(NC(=O)CC[C@@H](C)[C@H]2CC[C@H]3[C@@H]4CC[C@@H]5C[C@H](O)CC[C@]5(C)[C@H]4C[C@H](O)[C@]23C)cc1` [Compound 6b, N-(p-Tolyl)-3α,12α-dihydroxy-5β-cholan-24-amide]: the concentration for half-maximal inhibition (IC50) stood at 7.6 ± 3.9 µM.

In the case of `CC(=O)O[C@@H]1CC[C@@]2(C)[C@H](CC[C@@H]3[C@@H]2C[C@H](OC(C)=O)[C@]2(C)[C@@H]([C@H](C)CCC(=O)Nc4cccnc4)CC[C@@H]32)C1` [Compound 7a, N-(Pyridin-3-yl)-3α,12α-diacetoxy-5β-cholan-24-amide], it took 4.08 ± 0.08 µM to reach half-maximal inhibition (IC50).

As to `C[C@H](CCC(=O)Nc1cccnc1)[C@H]1CC[C@H]2[C@@H]3CC[C@@H]4C[C@H](O)CC[C@]4(C)[C@H]3C[C@H](O)[C@]12C` [Compound 7b, N-(Pyridin-3-yl)-3α,12α-dihydroxy-5β-cholan-24-amide], the IC50 is greater than 15 µM.

`CC(=O)O[C@@H]1CC[C@]2(C)C3C[C@H](OC(C)=O)[C@@]4(C)C(CC[C@@H]4[C@H](C)CCC(=O)NC45CC6CC(CC(C6)C4)C5)[C@@H]3CC[C@@H]2C1` (stereo partly drawn) [Compound 8a, N-(1′-Adamantyl)-3α,12α-diacetoxy-5β-cholan-24-amide] displayed an IC50 of 0.47 ± 0.08 µM.

`C[C@H](CCC(=O)NC12CC3CC(CC(C3)C1)C2)[C@H]1CCC2[C@@H]3CC[C@@H]4C[C@H](O)CC[C@]4(C)C3C[C@H](O)[C@@]21C` (stereo partly drawn) [Compound 8b, N-(1′-Adamantyl)-3α,12α-dihidroxy-5β-cholan-24-amide] displayed an IC50 of 2.3 ± 0.4 µM.

For `CC(=O)OC1CCC2(C)C(CCC3C2CC(OC(C)=O)C2(C)C(C(C)CCC(=O)NCCc4cc(C(C)(C)C)c(O)c(C(C)(C)C)c4)CCC32)C1` (stereo not drawn) [Compound 9a, N-(2′′-(3′,5′-Di-tret-buthyl-4′-hydroxyphenyl)-ethyl)-3α,12α-diacetoxy-5β-cholan-24-amide], the half-maximal inhibitory concentration (IC50) is 0.29 ± 0.12 µM.

Compound `CCN(CC)CCCNC(=O)CC[C@@H](C)[C@H]1CCC2[C@@H]3CC[C@@H]4C[C@H](OC(C)=O)CC[C@]4(C)C3C[C@H](OC(C)=O)[C@@]21C` (stereo partly drawn) [Compound 10a, N-(3′,3′-Diethylaminopropyl)-3α,12α-diacetoxy-5β-cholan-24-amide] registered an IC50 greater than 15 µM.

As to `CC(=O)O[C@@H]1CC[C@@]2(C)[C@H](CC[C@@H]3[C@@H]2C[C@H](OC(C)=O)[C@]2(C)[C@@H]([C@H](C)CCC(=O)NCCCN4CCOCC4)CC[C@@H]32)C1` [Compound 11a, N-(3′-Morpholinopropyl)-3α,12α-diacetoxy-5β-cholan-24-amide], the IC50 is greater than 15 µM.

Still in this test, the particulars now being: commercial sample of compound 1b (virtual screening hit); read-out: IC50.
As for `CC(CCC(=O)NCCc1c[nH]c2ccccc12)C1CCC2C3C(O)CC4CC(O)CCC4(C)C3CCC12C` (centres unmarked) [Compound 1b], the half-maximal inhibitory concentration (IC50) was determined as 0.3 µM.

A further test addresses T1, Tdp1.
Experiment: not given
Particulars: single- and double-stranded substrates of DNA; cited from earlier work.
As for `N=C(N)c1ccc(-c2ccc(-c3ccc(C(=N)N)cc3)o2)cc1` [Fur, furamidine], the Tdp1 inhibition result is reported as “low micromolar concentrations”.

(Values after publication PMC6017735, “Novel Semisynthetic Derivatives of Bile Acids as Effective Tyrosyl-DNA Phosphodiesterase 1 Inhibitors” (Molecules : A Journal of Synthetic Chemistry and Natural …, 2018).)
